Data from ChEMBL document CHEMBL5604063, “ASAP - DENV-2 NS2B-NS3 protease fluorescence dose response” (2024).
“And” between values parts separate entries of the source, which are not always exact repeats. Identical values can stand only once.

Columns and labels:
[1] = target: T1, Genome polyprotein (dengue virus type 2, UniProt P29990); type: functional, Thailand/16681/1984
[2] = target: T1, Genome polyprotein; type: functional, Thailand/16681/1984; remark: listed apart in the source

T1 sequence (P29990 1346-1475 limits assumed): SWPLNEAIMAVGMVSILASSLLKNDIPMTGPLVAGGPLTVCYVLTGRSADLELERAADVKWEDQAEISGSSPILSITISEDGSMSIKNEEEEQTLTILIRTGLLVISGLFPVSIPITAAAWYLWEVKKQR
T1 sequence (P29990 1476-2093 limits assumed): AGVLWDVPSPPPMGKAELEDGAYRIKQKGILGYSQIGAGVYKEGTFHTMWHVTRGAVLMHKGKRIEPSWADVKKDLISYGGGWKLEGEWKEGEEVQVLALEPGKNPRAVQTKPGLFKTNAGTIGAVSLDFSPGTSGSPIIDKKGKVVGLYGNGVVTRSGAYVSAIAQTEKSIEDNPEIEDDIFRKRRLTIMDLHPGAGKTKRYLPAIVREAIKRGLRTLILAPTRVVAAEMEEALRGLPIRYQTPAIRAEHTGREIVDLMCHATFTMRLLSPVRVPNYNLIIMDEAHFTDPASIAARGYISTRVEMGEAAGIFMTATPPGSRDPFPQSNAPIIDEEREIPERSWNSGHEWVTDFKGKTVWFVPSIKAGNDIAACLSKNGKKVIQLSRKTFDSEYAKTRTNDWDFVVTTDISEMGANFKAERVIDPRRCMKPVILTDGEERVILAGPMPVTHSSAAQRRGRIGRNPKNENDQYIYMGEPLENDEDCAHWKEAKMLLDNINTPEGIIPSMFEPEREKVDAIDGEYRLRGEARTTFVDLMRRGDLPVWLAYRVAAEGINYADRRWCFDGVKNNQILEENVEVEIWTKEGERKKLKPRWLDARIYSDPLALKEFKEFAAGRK

Cc1c(C(=O)Nc2cc(C3(C)OCCO3)ccn2)cc(C2CC2)n1C
IC50 [1]: > 100 µM
IC50 [2]: > 99.5 µM

Cc1ncc(-c2cc(F)cc(C(=O)Nc3ccc4c(c3)CNC4)c2)o1
IC50 [1]: > 100 µM
IC50 [2]: > 99.5 µM

O=C(Nc1cc2c(cc1Br)CNC2)c1cc(Cl)cc2[nH]ncc12
IC50 [1]: > 100 µM
IC50 [2]: > 99.5 µM

O=C(Nc1cc(-c2cccnc2)ccn1)c1cc2n(n1)CCO2
IC50 [1]: > 100 µM
IC50 [2]: > 99.5 µM

Cc1c(C(=O)Nc2cccc([C@H]3CCOC3)c2)cc(C2CC2)n1C
IC50 [1]: > 100 µM
IC50 [2]: > 99.5 µM

O=C(Nc1cc(-c2cccnc2)ccn1)c1csc(C[C@H]2CCNC2)n1
IC50 [1]: > 100 µM
IC50 [2]: > 99.5 µM

O=C(Nc1cc(-c2cccnc2)ccn1)c1nc(C2CC2)co1
IC50 [1]: > 100 µM
IC50 [2]: > 99.5 µM

CNC(=O)[C@H](Nc1cc(Cl)cc2[nH]ncc12)c1ccc2c(c1)CNC2
IC50 [1]: > 100 µM
IC50 [2]: > 99.5 µM

Cc1c(C(=O)Nc2cc(-c3cccnc3)ccn2)cc(C2CCCC2)n1C
IC50 [1]: > 100 µM
IC50 [2]: > 99.5 µM

C=CC[C@H]1NCc2cc(N[C@H](C(=O)NC(C)C)c3cccc4[nH]ncc34)ccc21
IC50 [1]: > 100 µM
IC50 [2]: > 99.5 µM

COCCNC(=O)[C@H](Nc1cccc([C@H]2CCOC2)c1)c1cc(Cl)cc2[nH]ncc12
IC50 [1]: > 100 µM
IC50 [2]: > 99.5 µM

O=C(Nc1cc(-c2cccnc2)ccn1)c1csc(C[C@H]2CCCNC2)n1
IC50 [1]: > 100 µM
IC50 [2]: > 99.5 µM

CC(C)n1cc(C(=O)Nc2cc(-c3cccnc3)ccn2)c2ccccc21
IC50 [1]: > 100 µM
IC50 [2]: > 99.5 µM

O=C(Nc1cc(-c2cccnc2)ccn1)c1cccc(C2CC2)c1
IC50 [1]: > 100 µM
IC50 [2]: > 99.5 µM

CNC(=O)[C@H](Nc1ccc2c(c1)CNC2)c1cccc2[nH]c(C(F)(F)F)nc12
IC50 [1]: > 100 µM
IC50 [2]: > 99.5 µM

O=C(NCC(F)F)[C@H](Nc1ccc2c(c1)CNC2)c1cc(F)cc2[nH]ccc12
IC50 [1]: > 100 µM
IC50 [2]: > 99.5 µM

O=C(Nc1ccc2c(c1)CNC2)c1cc(Cl)cc2[nH]c(-c3cn[nH]c3)cc12
IC50 [1]: > 100 µM
IC50 [2]: > 99.5 µM

Cc1c(C(=O)Nc2cc(-c3cccnc3)ccn2)cc(C2CCCCC2)n1C
IC50 [1]: > 100 µM
IC50 [2]: > 99.5 µM

O=C(Nc1ccc2c(c1)CNC2)c1cc(Cl)cc2[nH]c(COc3ccccn3)nc12
IC50 [1]: 20.1 µM and 16.8 µM
IC50 [2]: > 99.5 µM

O=C(Nc1cc(-c2cccnc2)ccn1)c1cnn2c1CCC2
IC50 [1]: > 100 µM
IC50 [2]: > 99.5 µM

O=C(NCCC1CC1)[C@H](Nc1ccc2c(c1)CNC2)c1cc(Cl)cc(C2CC2)c1
IC50 [1]: > 100 µM
IC50 [2]: > 99.5 µM

O=C1Cc2c(C(=O)Nc3ccc4c(c3)CNC4)ccnc2N1
IC50 [1]: > 100 µM
IC50 [2]: > 99.5 µM

O=C(Nc1cc([C@H]2CCOC2)ccn1)c1cc(Cl)cc2c1CCC2
IC50 [1]: > 100 µM
IC50 [2]: > 99.5 µM

O=C(Nc1ccc2c(c1)CNC2)c1cc(Cl)cc2[nH]c(CN3CCCC3=O)cc12
IC50 [1]: > 100 µM
IC50 [2]: > 99.5 µM

Cc1c(C(=O)Nc2cc(-c3cccnc3)ccn2)cc(-c2ccccc2)n1C
IC50 [1]: > 100 µM
IC50 [2]: > 99.5 µM

O=C(Nc1ccc2c(c1)C(=O)OC2)c1ccc2c(c1)CNC2
IC50 [1]: > 100 µM
IC50 [2]: > 99.5 µM

O=C(Nc1ccc2c(c1)CS(=O)(=O)C2)c1cc(Cl)cc2[nH]ncc12
IC50 [1]: > 100 µM
IC50 [2]: > 99.5 µM

COc1ccc(-c2nc3c(C(=O)Nc4ccc5c(c4)CNC5)cc(Cl)cc3[nH]2)cc1
IC50 [1]: 39.5 µM and 40.3 µM
IC50 [2]: 21.5 µM

Cc1c(C(=O)Nc2cc(SC3COC3)ccn2)cc(C2CC2)n1C
IC50 [1]: > 100 µM
IC50 [2]: > 99.5 µM

O=C(Nc1ccc2c(c1)CNC2)c1cc(F)cc(-c2cccnc2)c1
IC50 [1]: > 100 µM
IC50 [2]: > 99.5 µM

O=C(Nc1ccc2c(c1)CNC2)c1cc(Cl)cc2[nH]c(-c3cnccc3O)nc12
IC50 [1]: > 100 µM
IC50 [2]: 37.1 µM

O=C(Nc1cc(Br)c2c(c1)CNC2)c1cc(F)cc2[nH]ncc12
IC50 [1]: 30.6 µM and 22.5 µM
IC50 [2]: 40.4 µM

O=C(Nc1ccc2c(c1)CNC2)c1cc(C(F)(F)F)c2cn[nH]c2n1
IC50 [1]: > 100 µM
IC50 [2]: > 99.5 µM

O=C(NCC(F)F)[C@H](Nc1ccc2c(c1)CNC2)c1cc(F)cc2[nH]ncc12
IC50 [1]: 78.2 µM
IC50 [2]: > 99.5 µM

Cc1oc(C2CC2)nc1C(=O)Nc1cc(-c2cccnc2)ccn1
IC50 [1]: > 100 µM
IC50 [2]: > 99.5 µM

Cc1c(C(=O)Nc2cccc(-c3cccnc3)c2)cc(C2CC2)n1C
IC50 [1]: > 100 µM
IC50 [2]: > 99.5 µM

CNC(=O)[C@H](Nc1cccc([C@H]2CCOC2)c1)c1cc(C2CC2)n(C)n1
IC50 [1]: > 100 µM
IC50 [2]: > 99.5 µM

NCc1cc(Cl)cc(C(=O)Nc2cc([C@H]3CCOC3)ccn2)c1
IC50 [1]: > 100 µM
IC50 [2]: > 99.5 µM

Cc1c(C(=O)Nc2cc(-c3cccnc3)ccn2)cc(C(C)(C)C)n1C
IC50 [1]: > 100 µM
IC50 [2]: > 99.5 µM

Cn1c(C2CC2)cc(C(=O)Nc2cc(-c3cccnc3)ccn2)c1C1CC1
IC50 [1]: > 100 µM
IC50 [2]: > 99.5 µM

Cc1c(C(=O)Nc2ccnc(O[C@H]3CCOC3)c2)cc(C2CC2)n1C
IC50 [1]: > 100 µM
IC50 [2]: > 99.5 µM

O=C(Nc1cc2c(c(C3=CC[C@H](O)CC3)c1)CNC2)c1cc(Cl)cc2[nH]ncc12
IC50 [1]: > 100 µM
IC50 [2]: 69.5 µM

COCCNC(=O)[C@H](Nc1cccc([C@H]2CCOC2)c1)c1cc(F)cc2[nH]ccc12
IC50 [1]: > 100 µM
IC50 [2]: > 99.5 µM

CNC(=O)[C@H](Nc1ccc2c(c1)CNC2)c1cc(Cl)cc2c1OCC2
IC50 [1]: > 100 µM
IC50 [2]: > 99.5 µM

CC(C)NC(=O)[C@H](Nc1ccc2c(c1)CNC2)c1cc(F)cc2[nH]ccc12
IC50 [1]: > 100 µM
IC50 [2]: > 99.5 µM

C=CC[C@H]1NCc2cc(NC(=O)c3cc(F)cc4c3CC(=O)N4)ccc21
IC50 [1]: 31.9 µM and 23.6 µM
IC50 [2]: 31.9 µM

NS(=O)(=O)c1cc(F)cc(C(=O)Nc2ccc3c(c2)CNC3)c1
IC50 [1]: > 100 µM
IC50 [2]: > 99.5 µM

O=C(Nc1ccc2c(c1)CNC2)c1ccc2ccncc2c1
IC50 [1]: > 100 µM
IC50 [2]: > 99.5 µM

O=C(Nc1ccc2c(c1)CNC2)c1cc(F)cc2c1CCNC2
IC50 [1]: > 100 µM
IC50 [2]: > 99.5 µM

O=C(Nc1ccc2c(c1)CNC2)c1cc(Br)cc2c1nc1n2CCCC1
IC50 [1]: 47.5 µM and 35.2 µM
IC50 [2]: 23.8 µM

O=C(Nc1ccc2c(c1)CNC2)c1n[nH]c2ccc(F)cc12
IC50 [1]: 78.7 µM
IC50 [2]: > 99.5 µM

O=C(Nc1ccc2c(c1)CNC2)c1cc(F)cc(-c2ccnn2CC2CC2)c1
IC50 [1]: > 100 µM
IC50 [2]: > 99.5 µM

O=C(Nc1cc(-c2cccnc2)ccn1)c1cc(C2CC2)[nH]n1
IC50 [1]: > 100 µM
IC50 [2]: > 99.5 µM

O=C(Nc1cc(-c2cccnc2)ccn1)c1cc2n(n1)CCS2(=O)=O
IC50 [1]: > 100 µM
IC50 [2]: > 99.5 µM

O=C1OCc2ccc(NC(=O)c3cc(F)cc4c3CCNC4)cc21
IC50 [1]: > 100 µM
IC50 [2]: > 99.5 µM

Cc1c(C(=O)Nc2cccc(-c3ccccc3)c2)cc(C2CC2)n1C
IC50 [1]: > 100 µM
IC50 [2]: > 99.5 µM

Cc1c(C(=O)Nc2cc(-c3cccnc3)ccn2)cc(C2CCC2)n1C
IC50 [1]: > 100 µM
IC50 [2]: > 99.5 µM

O=C(Nc1cc(-c2cccnc2)ccn1)c1cc2n(n1)CC(F)(F)C2
IC50 [1]: > 100 µM
IC50 [2]: > 99.5 µM

O=C(Nc1ccc2c(c1)CNC2)c1cc(F)cc(-c2cnc(C3CC3)s2)c1
IC50 [1]: > 100 µM
IC50 [2]: > 99.5 µM

O=C(Nc1cc(-c2cccnc2)ccn1)c1cc2n(n1)CC1(CC1)C2
IC50 [1]: > 100 µM
IC50 [2]: > 99.5 µM

Nc1nc2c(Br)cc(C(=O)Nc3ccc4c(c3)CNC4)cc2s1
IC50 [1]: 51.9 µM and 37.3 µM
IC50 [2]: 28.2 µM

Cc1c(C(=O)Nc2cc(-c3ccccc3)ccn2)cc(C2CC2)n1C
IC50 [1]: > 100 µM
IC50 [2]: > 99.5 µM
